Measurements reported in PubChem BioAssay (NCI).
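Assay format: 96-well plates, 48-hour exposure. Abbreviation: GI50, concentration required for 50% inhibition of growth. TGI is the concentration that stops growth completely.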

Experiments:
Assay in all cases: growth of human tumour cells (NCI), 48 h
TK-10 renal = system: TK-10 renal
OVCAR-5 ovarian = system: OVCAR-5 ovarian
NCI-H23 lung = system: NCI-H23 lung
UACC-62 melanoma = system: UACC-62 melanoma
UACC-257 melanoma = system: UACC-257 melanoma
COLO 205 colon = system: COLO 205 colon
LOX IMVI melanoma = system: LOX IMVI melanoma
UO-31 renal = system: UO-31 renal
SK-OV-3 ovarian = system: SK-OV-3 ovarian
OVCAR-4 ovarian = system: OVCAR-4 ovarian
SK-MEL-5 melanoma = system: SK-MEL-5 melanoma
A498 renal = system: A498 renal
SK-MEL-2 melanoma = system: SK-MEL-2 melanoma
SNB-19 CNS = system: SNB-19 CNS
SK-MEL-28 melanoma = system: SK-MEL-28 melanoma
SF-268 CNS = system: SF-268 CNS
SNB-75 CNS = system: SNB-75 CNS
NCI-H226 lung = system: NCI-H226 lung
U251 CNS = system: U251 CNS
EKVX NSCLC = system: EKVX NSCLC
HOP-62 NSCLC = system: HOP-62 NSCLC
IGROV1 ovarian = system: IGROV1 ovarian
A549 NSCLC = system: A549 NSCLC
NCI-H460 lung = system: NCI-H460 lung
HOP-92 NSCLC = system: HOP-92 NSCLC
HT29 colon = system: HT29 colon
HL-60(TB) leukemia = system: HL-60(TB) leukemia
RXF 393 renal = system: RXF 393 renal
HCT-116 colon = system: HCT-116 colon
HCC-2998 colon = system: HCC-2998 colon
SN12C renal = system: SN12C renal
MOLT-4 leukemia = system: MOLT-4 leukemia
OVCAR-8 ovarian = system: OVCAR-8 ovarian
HCT-15 colon = system: HCT-15 colon
SW-620 colon = system: SW-620 colon
K-562 leukemia = system: K-562 leukemia
MALME-3M melanoma = system: MALME-3M melanoma
ACHN renal = system: ACHN renal
CAKI-1 renal = system: CAKI-1 renal
NCI-H522 lung = system: NCI-H522 lung
786-0 renal = system: 786-0 renal
M14 melanoma = system: M14 melanoma
RPMI-8226 leukemia = system: RPMI-8226 leukemia
KM20L2 colon = system: KM20L2 colon

In the case of `O=C(/C=C(\[O-])c1ccccc1)CCCCCCC(=O)/C=C(\[O-])c1ccccc1.O=C(/C=C(\[O-])c1ccccc1)CCCCCCC(=O)/C=C(\[O-])c1ccccc1.O=C(/C=C(\[O-])c1ccccc1)CCCCCCC(=O)/C=C(\[O-])c1ccccc1.[La+3].[La+3]`, the GI50 (TK-10 renal) is reported as greater than 50 µM, the TGI (TK-10 renal) is reported as greater than 50 µM and the GI50 (OVCAR-5 ovarian) is reported as greater than 50 µM. For the same compound, the TGI (OVCAR-5 ovarian) was greater than 50 µM, the GI50 (NCI-H23 lung) was greater than 50 µM and the TGI (NCI-H23 lung) was greater than 50 µM. The GI50 (UACC-62 melanoma) was greater than 50 µM, the TGI (UACC-62 melanoma) was greater than 50 µM and the GI50 (UACC-257 melanoma) was greater than 50 µM. It also gave a TGI (UACC-257 melanoma) greater than 50 µM, a GI50 (COLO 205 colon) greater than 50 µM and a TGI (COLO 205 colon) greater than 50 µM. For the same compound, the GI50 (LOX IMVI melanoma) was greater than 50 µM, the TGI (LOX IMVI melanoma) was greater than 50 µM and the GI50 (UO-31 renal) was greater than 50 µM. The TGI (UO-31 renal) was greater than 50 µM, the GI50 (SK-OV-3 ovarian) was greater than 50 µM and the TGI (SK-OV-3 ovarian) was greater than 50 µM. It also gave a GI50 (OVCAR-4 ovarian) greater than 50 µM, a TGI (OVCAR-4 ovarian) greater than 50 µM and a GI50 (SK-MEL-5 melanoma) greater than 50 µM. For the same compound, the TGI (SK-MEL-5 melanoma) was greater than 50 µM, the GI50 (A498 renal) was greater than 50 µM and the TGI (A498 renal) was greater than 50 µM. The GI50 (SK-MEL-2 melanoma) was greater than 50 µM, the TGI (SK-MEL-2 melanoma) was greater than 50 µM and the GI50 (SNB-19 CNS) was greater than 50 µM. For the same compound, the TGI (SNB-19 CNS) was greater than 50 µM, the GI50 (SK-MEL-28 melanoma) was greater than 50 µM and the TGI (SK-MEL-28 melanoma) was greater than 50 µM. It also gave a GI50 (SF-268 CNS) greater than 50 µM, a TGI (SF-268 CNS) greater than 50 µM and a GI50 (SNB-75 CNS) of 9.33 µM. It also gave a TGI (SNB-75 CNS) of 48.2 µM, a GI50 (NCI-H226 lung) greater than 50 µM and a TGI (NCI-H226 lung) greater than 50 µM. The GI50 (U251 CNS) was greater than 50 µM, the TGI (U251 CNS) was greater than 50 µM and the GI50 (EKVX NSCLC) was greater than 50 µM. It also gave a TGI (EKVX NSCLC) greater than 50 µM, a GI50 (HOP-62 NSCLC) greater than 50 µM and a TGI (HOP-62 NSCLC) greater than 50 µM. It also gave a GI50 (IGROV1 ovarian) greater than 50 µM, a TGI (IGROV1 ovarian) greater than 50 µM and a GI50 (A549 NSCLC) greater than 50 µM. The TGI (A549 NSCLC) was greater than 50 µM, the GI50 (NCI-H460 lung) was greater than 50 µM and the TGI (NCI-H460 lung) was greater than 50 µM. The GI50 (HOP-92 NSCLC) was greater than 50 µM, the TGI (HOP-92 NSCLC) was greater than 50 µM and the GI50 (HT29 colon) was greater than 50 µM. It also gave a TGI (HT29 colon) greater than 50 µM, a GI50 (HL-60(TB) leukemia) greater than 50 µM and a TGI (HL-60(TB) leukemia) greater than 50 µM. The GI50 (RXF 393 renal) was greater than 50 µM, the TGI (RXF 393 renal) was greater than 50 µM and the GI50 (HCT-116 colon) was greater than 50 µM. For the same compound, the TGI (HCT-116 colon) was greater than 50 µM, the GI50 (HCC-2998 colon) was greater than 50 µM and the TGI (HCC-2998 colon) was greater than 50 µM. For the same compound, the GI50 (SN12C renal) was greater than 50 µM, the TGI (SN12C renal) was greater than 50 µM and the GI50 (MOLT-4 leukemia) was greater than 50 µM. For the same compound, the TGI (MOLT-4 leukemia) was greater than 50 µM, the GI50 (OVCAR-8 ovarian) was greater than 50 µM and the TGI (OVCAR-8 ovarian) was greater than 50 µM. It also gave a GI50 (HCT-15 colon) greater than 50 µM, a TGI (HCT-15 colon) greater than 50 µM and a GI50 (SW-620 colon) greater than 50 µM. It also gave a TGI (SW-620 colon) greater than 50 µM, a GI50 (K-562 leukemia) greater than 50 µM and a TGI (K-562 leukemia) greater than 50 µM. For the same compound, the GI50 (MALME-3M melanoma) was greater than 50 µM, the TGI (MALME-3M melanoma) was greater than 50 µM and the GI50 (ACHN renal) was greater than 50 µM. For the same compound, the TGI (ACHN renal) was greater than 50 µM, the GI50 (CAKI-1 renal) was greater than 50 µM and the TGI (CAKI-1 renal) was greater than 50 µM. For the same compound, the GI50 (NCI-H522 lung) was greater than 50 µM, the TGI (NCI-H522 lung) was greater than 50 µM and the GI50 (786-0 renal) was greater than 50 µM. The TGI (786-0 renal) was greater than 50 µM, the GI50 (M14 melanoma) was greater than 50 µM and the TGI (M14 melanoma) was greater than 50 µM. The GI50 (RPMI-8226 leukemia) was greater than 50 µM, the TGI (RPMI-8226 leukemia) was greater than 50 µM and the GI50 (KM20L2 colon) was greater than 50 µM. The TGI (KM20L2 colon) was greater than 50 µM.
